This note sets out measurements from patent US20120058499A1, “Bioluminescent Detection of Protease Activity” (priority 2010, published 2012).

Holding throughout (format): biochemical
One test concerns the target JosD1 (Homo sapiens, UniProt Q15040). Description: Platform comparison of DUB substrates, signal to background. The following applies: DUB 10 nM; signal at 30 minutes; Ub-LUC 100 nM, DUB-Glo substrate 20 μM, Ub-AMC/Ub-rho 250 nM. Here is the method:
(§1) For Ub-AMC and Ub-Rhodamine110, all enzymes were diluted into 50 mM Tris, pH 8.0, 5 mM DTT, 0.05% CHAPS to a final concentration of 10 nM. […] Either Ub-AMC or Ub-Rhodamine110 (final reaction concentration equal to 250 nM) were diluted into 50 mM Tris, pH 8.0, 5 mM DTT, 0.05% (w/v) CHAPS. […] For Ub-Rhodamine110, fluorescence was monitored with filters corresponding to excitation at 485 nm and emission at 531 nm.

Another test addresses T1, JosD2 (Homo sapiens, UniProt Q8TAC2).
T1 sequence (Q8TAC2 1-188): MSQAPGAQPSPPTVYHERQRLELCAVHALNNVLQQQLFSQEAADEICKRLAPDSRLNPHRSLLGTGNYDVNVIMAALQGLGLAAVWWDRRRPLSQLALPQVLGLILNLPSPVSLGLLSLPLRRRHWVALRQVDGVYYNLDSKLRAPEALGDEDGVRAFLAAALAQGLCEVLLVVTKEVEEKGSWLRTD
The description is as above. The following applies: DUB 10 nM; signal at 30 minutes; Ub-LUC 100 nM, DUB-Glo substrate 20 μM, Ub-AMC/Ub-rho 250 nM. Here is the method:
as §1

Another test addresses USP20 (Homo sapiens, UniProt Q9Y2K6). The test is described as above. As to conditions: DUB 10 nM; signal at 30 minutes; Ub-LUC 100 nM, DUB-Glo substrate 20 μM, Ub-AMC/Ub-rho 250 nM. Here is the method:
as §1

In the next test the target is T2, Ataxin3-like (Homo sapiens, UniProt Q9H3M9).
T2 sequence (Q9H3M9 1-355): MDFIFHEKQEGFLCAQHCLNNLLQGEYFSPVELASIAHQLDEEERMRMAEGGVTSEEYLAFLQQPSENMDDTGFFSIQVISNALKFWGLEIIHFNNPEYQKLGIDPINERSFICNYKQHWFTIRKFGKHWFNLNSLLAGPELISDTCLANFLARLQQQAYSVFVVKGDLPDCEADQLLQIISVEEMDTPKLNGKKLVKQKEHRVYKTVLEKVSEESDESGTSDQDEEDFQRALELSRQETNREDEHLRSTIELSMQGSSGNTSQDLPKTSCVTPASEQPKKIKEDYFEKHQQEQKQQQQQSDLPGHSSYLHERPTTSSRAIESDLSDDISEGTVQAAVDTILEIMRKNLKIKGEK
The description is as above. As to conditions: DUB 10 nM; signal at 30 minutes; Ub-LUC 100 nM, DUB-Glo substrate 20 μM, Ub-AMC/Ub-rho 250 nM. Here is the method:
as §1

The target in the next test is T3, AMSH (Homo sapiens, UniProt O95630).
T3 sequence (O95630 1-424): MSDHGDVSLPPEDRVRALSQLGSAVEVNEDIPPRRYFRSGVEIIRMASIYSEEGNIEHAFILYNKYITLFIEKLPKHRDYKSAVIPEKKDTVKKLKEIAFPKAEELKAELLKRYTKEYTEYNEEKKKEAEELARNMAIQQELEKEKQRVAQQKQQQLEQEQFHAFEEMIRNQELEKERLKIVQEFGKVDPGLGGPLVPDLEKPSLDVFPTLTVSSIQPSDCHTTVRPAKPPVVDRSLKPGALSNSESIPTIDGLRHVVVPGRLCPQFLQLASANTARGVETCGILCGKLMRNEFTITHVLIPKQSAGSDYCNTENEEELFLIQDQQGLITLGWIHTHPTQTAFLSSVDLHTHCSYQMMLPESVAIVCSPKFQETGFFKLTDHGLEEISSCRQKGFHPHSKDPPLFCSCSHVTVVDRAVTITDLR
Described as above. The following applies: DUB 10 nM; signal at 30 minutes; Ub-LUC 100 nM, DUB-Glo substrate 20 μM, Ub-AMC/Ub-rho 250 nM. Here is the method: as §1

Test [1] has as its system Otub2, JosD1, JosD2, AMSH, Ataxin3, Ataxin3-like, UCHL5, USP20, and USP14. In words: Substrate comparison on panel of nine isopeptidases. Here is the method:
as §1

Sequence of USP20 (Q9Y2K6 whole entry, species assumed): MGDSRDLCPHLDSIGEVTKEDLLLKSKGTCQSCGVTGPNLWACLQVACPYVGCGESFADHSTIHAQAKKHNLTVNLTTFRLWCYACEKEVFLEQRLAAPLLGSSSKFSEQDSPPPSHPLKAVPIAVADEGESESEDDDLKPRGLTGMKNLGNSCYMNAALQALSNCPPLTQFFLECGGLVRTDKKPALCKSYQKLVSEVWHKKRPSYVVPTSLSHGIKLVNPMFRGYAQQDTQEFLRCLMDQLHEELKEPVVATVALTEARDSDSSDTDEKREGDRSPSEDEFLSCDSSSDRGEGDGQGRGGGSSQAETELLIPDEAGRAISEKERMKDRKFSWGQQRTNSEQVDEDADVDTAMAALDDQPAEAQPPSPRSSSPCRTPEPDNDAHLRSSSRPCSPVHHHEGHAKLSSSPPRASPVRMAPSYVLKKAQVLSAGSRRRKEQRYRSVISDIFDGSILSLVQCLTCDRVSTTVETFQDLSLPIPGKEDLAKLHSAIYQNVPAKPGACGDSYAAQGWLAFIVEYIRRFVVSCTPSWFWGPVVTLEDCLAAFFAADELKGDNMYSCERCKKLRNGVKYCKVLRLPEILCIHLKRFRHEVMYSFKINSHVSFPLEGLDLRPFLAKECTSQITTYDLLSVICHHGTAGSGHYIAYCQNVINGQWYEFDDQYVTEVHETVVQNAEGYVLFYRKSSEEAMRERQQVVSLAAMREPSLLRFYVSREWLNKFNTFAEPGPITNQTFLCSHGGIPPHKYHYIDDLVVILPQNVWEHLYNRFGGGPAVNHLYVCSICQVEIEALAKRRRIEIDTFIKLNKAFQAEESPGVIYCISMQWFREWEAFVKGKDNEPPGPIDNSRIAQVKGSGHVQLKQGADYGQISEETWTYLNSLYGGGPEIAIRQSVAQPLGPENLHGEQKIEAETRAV

On to Ub(1-76)-aminoluciferin [Ub-LUC], for which the “Signal to Background value” at JosD1 was determined as 74; on JosD2 it was 760; on USP20, 473; on Ataxin3-like, 120; on AMSH it was 16. Moreover, the “S/B towards Ub-amino-luciferin, fold higher than Ub-AMC / Ub-Rhodamine110” value in test [1] (equivalent molar concentrations, seven of nine DUBs (exceptions JosD2 and UCHL5)) was 10-1000 fold. Besides, the “fold greater S/B compared to Z-RLRGG-amino-luciferin (DUB-Glo reagent)” value in test [1] (range over panel of 9 isopeptidases, 10 nM) was 10-1000 fold.

As to “Z-Arg-Leu-Arg-Gly-Gly (SEQ ID NO: 1)-amino-luciferin [DUB-glo ™]”, the “Signal to Background value” is 1.3 on JosD1; 2.1 at JosD2; 2.8 on USP20; 1.5 at Ataxin3-like; 1.4 at AMSH.
